Results as given in patent US20230015823A1, “METHODS OF ADMINISTERING VOXELOTOR” (Global Blood Therapeutics, Inc., priority 2019, published 2023).
Like-named read-outs stand apart in the source and are kept apart here.

Test: Phase 1 study of a single oral dose of voxelotor in subjects with hepatic impairment: whole blood and plasma PK
Assay type: in vivo, human
Conditions: for half-life / Tmax / AUC(0-t) / AUC(0-inf) / Cmax / Vd/F: human, po; for half-life: read-out: t1/2, mean (converted); for Tmax: read-out: tmax, median (converted); for AUC(0-inf): read-out: AUCinf, GM (converted); for Cmax: read-out: Cmax, GM (converted); for Vd/F: read-out: Vz/F, GM (converted)
Description: A Phase 1, open-label study was performed to characterize pharmacokinetics (PK) and safety of a single oral dose of voxelotor in subjects with hepatic impairment. The study was to assess the effects of mild, moderate, or severe hepatic impairment on the PK of a single oral dose of voxelotor, to evaluate the safety and tolerability of a single oral dose of voxelotor in subjects with mild, moderate, or severe hepatic impairment, as well as to establish potential dose adjustment guidance based upon the degree of hepatic insufficiency. […] This study was designed to assess the effects of mild, moderate, or severe hepatic impairment on the PK of a single oral dose of voxelotor. Routine safety assessments (AE monitoring, vital signs, physical examinations, clinical laboratory tests, and ECGs) were performed. Eligible subjects received a single oral dose of voxelotor 1500 mg (5×300-mg capsules) on Day 1 (for normal hepatic function, mild and moderate hepatic impairment). […] No food was allowed for at least 4 hours postdose. No water or any type of liquid was allowed for 1 hour before dosing through 1-hour postdose with the exception of water consumed for dosing. Adverse events and concomitant medication use were monitored throughout the study. Safety assessments, including physical examinations, vital signs assessments, 12-lead ECGs, and clinical laboratory tests, were performed. Whole blood and plasma concentrations of voxelotor were determined using validated assays. […] Louis, Mo.) and actual sampling times. The following PK parameters were determined. To assess the effect of hepatic impairment on the PK of voxelotor, a linear mixed-effect model was fitted to the log-transformed values of whole blood and plasma Cmax, AUCt, and AUCinf. The model included hepatic impairment group as a fixed effect and age and weight as covariates. Point estimates and 90% CIs for hepatic function group differences (mild, moderate, and severe hepatically-impaired subjects [test] versus the normal hepatic function subjects [control]) on the log scale were exponentiated to obtain estimates for GM ratios on the original scale. Voxelotor whole blood and plasma concentrations were measured using a validated liquid chromatography-mass spectrometry method. The lower limit of assay quantitation for voxelotor was 10.0 ng/mL for whole blood and 5.00 ng/mL in plasma.

[1] = whole blood, 600 mg, whole blood, severe hepatic impairment, 600 mg single oral dose
[2] = whole blood, 1500 mg, whole blood, mild hepatic impairment, 1500 mg single oral dose
[3] = whole blood, 1500 mg, whole blood, moderate hepatic impairment, 1500 mg single oral dose
[4] = whole blood, 1500 mg, whole blood, normal hepatic function, 1500 mg single oral dose
[5] = plasma, Mild (Test) vs Normal (Ref)
[6] = plasma, Moderate (Test) vs Normal (Ref)
[7] = plasma, Severe (Test, adjusted for dose) vs Normal (Ref)
[8] = severe hepatic impairment, Cmax adjusted for dose
[9] = whole blood, Mild (Test) vs Normal (Ref)
[10] = whole blood, Moderate (Test) vs Normal (Ref)
[11] = whole blood, Severe (Test, adjusted for dose) vs Normal (Ref)

Question: Which half-life [1] does the source give for `CC(C)n1nccc1-c1ncccc1COc1cccc(O)c1C=O` [voxelotor, 2-hydroxy-6-((2-(1-isopropyl-1H-pyrazol-5-yl)pyridin-3-yl)methoxy)benzaldehyde] here?
Answer: 111 h

Question: And the Tmax [1]?
Answer: 24 h

Question: What about the AUC(0-t) (whole blood, 1500 mg, whole blood, mild hepatic impairment, 1500 mg single oral dose, read-out: AUC0-96, GM (converted)) of the same compound?
Answer: 5160 µg·h/mL

Question: What about the AUC(0-inf) [2] of the same compound?
Answer: 8230 µg·h/mL

Question: And the AUC(0-t) (whole blood, 1500 mg, whole blood, mild hepatic impairment, 1500 mg single oral dose, read-out: AUCt, GM (converted))?
Answer: 8190 µg·h/mL

Question: What about the Cmax [2] of the same compound?
Answer: 73.6 µg/mL

Question: What about the Vd/F [2] of the same compound?
Answer: 15.8 L

Question: What about the half-life [2] of the same compound?
Answer: 60.1 h

Question: What about the Tmax [2] of the same compound?
Answer: 24 h

Question: And the AUC(0-t) (whole blood, 1500 mg, whole blood, moderate hepatic impairment, 1500 mg single oral dose, read-out: AUC0-96, GM (converted))?
Answer: 4660 µg·h/mL

Question: And the AUC(0-inf) [3]?
Answer: 8360 µg·h/mL

Question: And the AUC(0-t) (whole blood, 1500 mg, whole blood, moderate hepatic impairment, 1500 mg single oral dose, read-out: AUCt, GM (converted))?
Answer: 8320 µg·h/mL

Question: And the Cmax [3]?
Answer: 63.8 µg/mL

Question: And the Vd/F [3]?
Answer: 20.6 L

Question: And the half-life [3]?
Answer: 79.5 h

Question: And the Tmax [3]?
Answer: 24 h

Question: What about the AUC(0-t) (whole blood, 1500 mg, whole blood, normal hepatic function, 1500 mg single oral dose, read-out: AUC0-96, GM (converted)) of the same compound?
Answer: 4270 µg·h/mL

Question: And the AUC(0-inf) [4]?
Answer: 6980 µg·h/mL

Question: And the AUC(0-t) (whole blood, 1500 mg, whole blood, normal hepatic function, 1500 mg single oral dose, read-out: AUCt, GM (converted))?
Answer: 6950 µg·h/mL

Question: And the Cmax [4]?
Answer: 60.9 µg/mL

Question: And the Vd/F [4]?
Answer: 19.6 L

Question: And the Tmax [4]?
Answer: 24 h

Question: What about the “plasma Cmax, higher than normal hepatic function” value (“plasma Cmax” below) (mild hepatic impairment) of the same compound?
Answer: 18%

Question: And the “whole blood Cmax, higher than normal hepatic function” value (“whole blood Cmax” for short) (mild hepatic impairment)?
Answer: 19%

Question: And the “AUC in whole blood higher compared to normal hepatic function” value (shortened to “AUC … compared to normal hepatic function”) (mild hepatic impairment (Child Pugh A))?
Answer: 14%

Question: And the “plasma Cmax” value (moderate hepatic impairment)?
Answer: 51%

Question: And the “whole blood Cmax” value (moderate hepatic impairment)?
Answer: 6%

Question: What about the “AUC … compared to normal hepatic function” value (moderate hepatic impairment (Child Pugh B)) of the same compound?
Answer: 15%

Question: What about the “AUCinf, Ratio of Geometric LS Mean (Test to Reference)” value (shortened to “AUCinf, Ratio of Geometric LS Mean”) [5] of the same compound?
Answer: 1.093

Question: What about the “AUCt, Ratio of Geometric LS Mean (Test to Reference)” value (“AUCt, Ratio of Geometric LS Mean” for short) [5] of the same compound?
Answer: 1.089

Question: And the “Cmax, Ratio of Geometric LS Mean (Test to Reference)” value (from here on “Cmax, Ratio of Geometric LS Mean”) [5]?
Answer: 1.177

Question: And the “AUCinf, Ratio of Geometric LS Mean” value [6]?
Answer: 1.180

Question: And the “AUCt, Ratio of Geometric LS Mean” value [6]?
Answer: 1.207

Question: What about the “Cmax, Ratio of Geometric LS Mean” value [6] of the same compound?
Answer: 1.510

Question: And the “AUCinf, Ratio of Geometric LS Mean” value [7]?
Answer: 1.932

Question: And the “AUCt, Ratio of Geometric LS Mean” value [7]?
Answer: 1.907

Question: And the “Cmax, Ratio of Geometric LS Mean” value [7]?
Answer: 1.445

Question: And the “CL/F, GM” value (plasma, mild hepatic impairment, 1500 mg single oral dose)?
Answer: 76.69 L/h

Question: What about the “CL/F, GM” value (plasma, moderate hepatic impairment, 1500 mg single oral dose) of the same compound?
Answer: 56.14 L/h

Question: What about the “CL/F, GM” value (plasma, normal hepatic function, 1500 mg single oral dose) of the same compound?
Answer: 77.50 L/h

Question: And the “CL/F, GM” value (plasma, severe hepatic impairment, 600 mg single oral dose)?
Answer: 73.81 L/h

Question: What about the “AUC … compared to normal hepatic function” value (severe hepatic impairment (Child Pugh C)) of the same compound?
Answer: 90%

Question: And the “plasma Cmax” value [8]?
Answer: 45%

Question: What about the “whole blood Cmax” value [8] of the same compound?
Answer: 39%

Question: And the “AUCinf, Ratio of Geometric LS Mean” value [9]?
Answer: 1.141

Question: And the “AUCt, Ratio of Geometric LS Mean” value [9]?
Answer: 1.140

Question: And the “Cmax, Ratio of Geometric LS Mean” value [9]?
Answer: 1.187

Question: And the “AUCinf, Ratio of Geometric LS Mean” value [10]?
Answer: 1.151

Question: What about the “AUCt, Ratio of Geometric LS Mean” value [10] of the same compound?
Answer: 1.149

Question: What about the “Cmax, Ratio of Geometric LS Mean” value [10] of the same compound?
Answer: 1.056

Question: And the “AUCinf, Ratio of Geometric LS Mean” value [11]?
Answer: 1.902

Question: What about the “AUCt, Ratio of Geometric LS Mean” value [11] of the same compound?
Answer: 1.867

Question: What about the “Cmax, Ratio of Geometric LS Mean” value [11] of the same compound?
Answer: 1.391

Question: What about the “CL/F, GM” value (whole blood, mild hepatic impairment, 1500 mg single oral dose) of the same compound?
Answer: 70.182 L/h

Question: And the “CL/F, GM” value (whole blood, moderate hepatic impairment, 1500 mg single oral dose)?
Answer: 60.179 L/h

Question: What about the “CL/F, GM” value (whole blood, normal hepatic function, 1500 mg single oral dose) of the same compound?
Answer: 70.215 L/h

Question: And the “CL/F, GM” value (whole blood, severe hepatic impairment, 600 mg single oral dose)?
Answer: 70.110 L/h
